Measurements published in publication PMC6695788, “Screening and Isolating Major Aldose Reductase Inhibitors from the Seeds of Evening Primrose (Oenothera biennis)” (Molecules, 2019).
Like-named read-outs stand apart in the source and are kept apart here.

Tests used:
[1] = molecular target: T1, rat lens aldose reductase (RLAR) (Rattus norvegicus, UniProt P07943); test: Rat lens aldose reductase (RLAR) inhibitory assay; assay type: biochemical; conditions: mean ± SD (n = 3); for inhibition at 10 µg/mL: sample concentration 10 μg/mL
T1 construct: the supernatant that retained the RLAR was collected for further tests; from tissue; host or cells: eye lens of Sprague-Dawley rats
Procedure: To extract the RLAR, the eye lens removed from the rats were first homogenized with sodium phosphate buffer (0.1 M, pH 6.2). […] Finally, the supernatant that retained the RLAR was collected for further tests. […] The inhibitory activities of the samples can be calculated using Equation (1):(1) Inhibition (%)=(1−ΔAsample−ΔAblank/ΔAcontrol−ΔAblank)×100% where ΔAcontrol is the absorbance change in 3 min of the tested mixture without the sample; ΔAblank is the absorbance change in 3 min of the tested mixture without RLAR; and ΔAsample is the absorbance change in 3 min of the tested mixture. The IC50 values of the active samples were also calculated and listed, where IC50 indicates the concentration of the tested sample required to consume half of the NADPH.

[2] = molecular target: T2, human recombinant aldose reductase (Homo sapiens, UniProt P15121); test: Affinity-based ultrafiltration-HPLC screening; assay type: binding; conditions: ESME incubated with AR 6.9 µM, 37 °C, 30 min, ultrafiltrate analysed
T2 construct: purchased Wako Pure Chemical Industries Ltd. (Osaka, Japan)
Procedure: The ultrafiltrate was collected for further HPLC analysis.
HPLC analysis was performed using an Agilent 1100 HPLC instrument (Agilent, Santa Clara, CA, USA) equipped with an Eclipse Plus C18 column (150 mm length, 4.6 mm i.d., and 5 µm particle size; Agilent, Santa Clara, CA, USA). The temperature of the column oven was set at 30 °C and the injection volumes of the samples were 10 µL.

Compound	IC50 ([1]; isolated compounds, read-out: IC50) [µM]	inhibition at 10 µg/mL ([1]; isolated compounds) [%]	HPLC peak area after incubation with human recombinant aldose reductase vs without [2]	IC50 ([1]; IC50, isolated compounds) [µM]	inhibition at 10 µg/mL ([1]; extracts and fractions) [%]
Oc1cc(O)c2c(c1)O[C@H](c1ccc(O)c(O)c1)[C@@H](O)C2 [Catechin (3), catechin]	14.8 ± 3.17	69.6 ± 1.99	decreased	–	–
O=C(O)c1cc(O)c(O)c(O)c1 [Gallic acid (1), gallic acid]	–	80.2 ± 1.56	decreased	11.5 ± 1.82	–
COC(=O)c1cc(O)c(O)c(O)c1 [Methyl gallate (4), methyl gallate]	–	32.2 ± 0.97	decreased	–	–
Oc1cc(O)c2c(c1)O[C@H](c1ccc(O)c(O)c1)[C@@H](O)[C@@H]2c1c(O)cc(O)c2c1O[C@H](c1ccc(O)c(O)c1)[C@@H](O)C2 [Procyanidin B3 (2), procyanidin B3]	–	44.6 ± 1.99	decreased	–	–
O=c1c(O)c(-c2ccc(O)c(O)c2)oc2cc(O)cc(O)c12 [Quercetin, quercetin, reference compound]	–	–	–	–	81.6 ± 3.81
